The subject of this experiment is test plant species. The experiment can be described thus: Post-emergent herbicidal activity test (greenhouse, foliar spray, visual growth reduction). Format: in vivo. Particulars: post-emergence, 336 h, 140 g ai/ha. The method in brief:
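Scoring used a 0 to 100 percent visual scale of growth reduction against solvent-treated controls, read 14 d after spraying. Applications went onto plants at first or second true leaf stage, 187 L/ha, with crop oil concentrate and X-77 surfactant in the carrier. Post-treatment watering was by subirrigation to avoid wash-off.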

Setting [1] is: ECHCG: barnyardgrass (Echinochloa crus-galli), 14 days after application, read-out: Visual Growth Reduction (%) 14 Days After Application, ECHCG.
The mark [2] stands for this setting: IPOHE: ivy-leaf morning glory (Ipomoea hederacea), 14 days after application, read-out: Visual Growth Reduction (%) 14 Days After Application, IPOHE.
Setting [3] is: KCHSC: kochia (Bassia scoparia), 14 days after application, read-out: Visual Growth Reduction (%) 14 Days After Application, KCHSC.
Setting [4] is: ORYSA: rice (Oryza sativa), 14 days after application, read-out: Visual Growth Reduction (%) 14 Days After Application, ORYSA.
The mark [5] stands for this setting: SETFA: giant foxtail (Setaria faberi), 14 days after application, read-out: Visual Growth Reduction (%) 14 Days After Application, SETFA.
Setting [6] is: SORVU: grain sorghum (Sorghum vulgare), 14 days after application, read-out: Visual Growth Reduction (%) 14 Days After Application, SORVU.
Setting [7] is: STEME: common chickweed (Stellaria media), 14 days after application, read-out: Visual Growth Reduction (%) 14 Days After Application, STEME.
The mark [8] stands for this setting: TRZAS: wheat, spring (Triticum aestivum), 14 days after application, read-out: Visual Growth Reduction (%) 14 Days After Application, TRZAS.
Setting [9] is: blackgrass (Alopecurus myosuroides), 14 Days After Application, read-out: Visual Growth Reduction (%) ALOMY.
Where [10] appears, read: canada thistle (Cirsium arvense), 14 Days After Application, read-out: Visual Growth Reduction (%) CIRAR.
Where [11] appears, read: crabgrass (Digitaria sanguinalis), 14 Days After Application, read-out: Visual Growth Reduction (%) DIGSA.
Where [12] appears, read: lambsquarters (Chenopodium album), 14 Days After Application, read-out: Visual Growth Reduction (%) CHEAL.
The mark [13] stands for this setting: redroot pigweed (Amaranthus retroflexus), 14 Days After Application, read-out: Visual Growth Reduction (%) AMARE.
The mark [14] stands for this setting: wild oat (Avena fatua), 14 Days After Application, read-out: Visual Growth Reduction (%) AVEFA.
Where [15] appears, read: yellow nutsedge (Cyperus esculentus), 14 Days After Application, read-out: Visual Growth Reduction (%) CYPES.

Read-outs that look alike come from different tables or passages of the source.

As to `Cc1cnc(-c2ccc(Cl)c(C(=O)O)n2)c(F)c1` [F208, 5-Chloro-3′-fluoro-5′-methyl-[2,2′-bipyridine]-6-carboxylic acid], the pest or weed control at 140 g/ha is, setting by setting: under setting [1], 0 to 29%; under setting [2], 0 to 29%; under setting [3], 0 to 29%; under setting [4], 0 to 29%; under setting [5], 0 to 29%; under setting [6], 0 to 29%. The pest or weed control at 140 g/ha is 0 to 29% under setting [7]; 0 to 29% under setting [8]; 0 to 29% under setting [9]; 0 to 29% under setting [10]; 0 to 29% under setting [11]; 85 to 94% under setting [12]. Besides, the pest or weed control at 140 g/ha was in the range of 0 to 29% under setting [13], 0 to 29% under setting [14] and 0 to 29% under setting [15].

Regarding `COC(=O)c1nc(-c2ccc(C(F)F)cc2)c(F)cc1Cl` [F209, Methyl 3-chloro-6-(4-(difluoromethyl)phenyl)-5-fluoropicolinate], the pest or weed control at 140 g/ha is 0 to 29% under setting [1]; 85 to 94% under setting [2]; 0 to 29% under setting [3]; 0 to 29% under setting [4]; 0 to 29% under setting [5]; 0 to 29% under setting [6]. Besides, the pest or weed control at 140 g/ha is, setting by setting: under setting [7], 0 to 29%; under setting [8], 0 to 29%; under setting [9], 0 to 29%; under setting [10], 60 to 74%; under setting [11], 0 to 29%; under setting [12], 85 to 94%. Also, the pest or weed control at 140 g/ha was in the range of 45 to 59% under setting [13], 0 to 29% under setting [14] and 0 to 29% under setting [15].

For the molecule `COC(=O)c1nc(-c2ccc(OC(F)(F)F)cc2Cl)c(F)cc1Cl` [F210, Methyl 3-chloro-6-(2-chloro-4-(trifluoromethoxy)phenyl)-5-fluoropicolinate], the pest or weed control at 140 g/ha by setting is: under setting [1], 60 to 74%; under setting [2], 95 to 100%; under setting [3], 75 to 84%; under setting [4], 0 to 29%; under setting [5], 85 to 94%; under setting [6], 95 to 100%. Also, the pest or weed control at 140 g/ha runs as follows: under setting [7], 0 to 29%; under setting [8], 45 to 59%; under setting [9], 45 to 59%; under setting [10], 85 to 94%; under setting [11], 85 to 94%; under setting [12], 85 to 94%. In addition, the pest or weed control at 140 g/ha under setting [13] lay within 95 to 100%, the pest or weed control at 140 g/ha under setting [14] was in the range of 60 to 74% and the pest or weed control at 140 g/ha under setting [15] is 0 to 29%.

`COC(=O)c1nc(-c2cc(N)c(C(F)(F)F)cc2Cl)ccc1Cl` [F211, methyl 6-(5-amino-2-chloro-4-(trifluoromethyl)phenyl)-3-chloropicolinate]: the pest or weed control at 140 g/ha under setting [1] fell in the range of 60 to 74%; the pest or weed control at 140 g/ha under setting [2] was in the range of 95 to 100%; the pest or weed control at 140 g/ha under setting [3] was in the range of 75 to 84%; the pest or weed control at 140 g/ha under setting [4] fell in the range of 0 to 29%; the pest or weed control at 140 g/ha under setting [5] was in the range of 45 to 59%; the pest or weed control at 140 g/ha under setting [6] lay within 60 to 74%. Besides, the pest or weed control at 140 g/ha runs as follows: under setting [7], 0 to 29%; under setting [8], 0 to 29%; under setting [9], 0 to 29%; under setting [10], 85 to 94%; under setting [11], 30 to 44%; under setting [12], 95 to 100%. Further, the pest or weed control at 140 g/ha reads like this: under setting [13], 85 to 94%; under setting [14], 0 to 29%; under setting [15], 0 to 29%.

As to `COC(=O)c1nc(-c2ccc(C(F)(F)F)c(N)c2Cl)ccc1Cl` [F212, Methyl 6-(3-amino-2-chloro-4-(trifluoromethyl)phenyl)-3-chloropicolinate], the pest or weed control at 140 g/ha under setting [1] fell in the range of 75 to 84%; the pest or weed control at 140 g/ha under setting [2] fell in the range of 95 to 100%; the pest or weed control at 140 g/ha under setting [3] is 60 to 74%; the pest or weed control at 140 g/ha under setting [4] was in the range of 0 to 29%; the pest or weed control at 140 g/ha under setting [5] is 60 to 74%; the pest or weed control at 140 g/ha under setting [6] lay in the range of 60 to 74%. The pest or weed control at 140 g/ha by setting is: under setting [7], 0 to 29%; under setting [8], 0 to 29%; under setting [9], 0 to 29%; under setting [10], 85 to 94%; under setting [11], 30 to 44%; under setting [12], 95 to 100%. For the same molecule, the pest or weed control at 140 g/ha was 60 to 74% under setting [13], 0 to 29% under setting [14] and 0 to 29% under setting [15].

Turning to `COC(=O)c1nc(-c2c(N)cc(C(F)(F)F)cc2Cl)ccc1Cl` [F213, Methyl 6-(2-amino-6-chloro-4-(trifluoromethyl)phenyl)-3-chloropicolinate], the pest or weed control at 140 g/ha reads like this: under setting [1], 0 to 29%; under setting [2], 95 to 100%; under setting [3], 60 to 74%; under setting [4], 0 to 29%; under setting [5], 30 to 44%; under setting [6], 60 to 74%. Moreover, the pest or weed control at 140 g/ha by setting is: under setting [7], 0 to 29%; under setting [8], 0 to 29%; under setting [9], 0 to 29%; under setting [10], 0 to 29%; under setting [11], 30 to 44%; under setting [12], 85 to 94%. Besides, the pest or weed control at 140 g/ha was 45 to 59% under setting [13], 0 to 29% under setting [14] and 0 to 29% under setting [15].

Consider `COC(=O)c1nc(-c2c(Cl)cc(C(F)(F)F)cc2I)ccc1Cl` [F214, methyl 3-chloro-6-(2-chloro-6-iodo-4-(trifluoromethyl)phenyl)picolinate], for which the pest or weed control at 140 g/ha fell in the range of 0 to 29% under setting [1]; 95 to 100% under setting [2]; 75 to 84% under setting [3]; 0 to 29% under setting [4]; 75 to 84% under setting [5]; 85 to 94% under setting [6]. In addition, the pest or weed control at 140 g/ha is, setting by setting: under setting [7], 30 to 44%; under setting [8], 75 to 84%; under setting [9], 45 to 59%; under setting [10], 85 to 94%; under setting [11], 95 to 100%; under setting [12], 95 to 100%. The pest or weed control at 140 g/ha runs as follows: under setting [13], 75 to 84%; under setting [14], 60 to 74%; under setting [15], 0 to 29%.

Turning to `COC(=O)c1nc(-c2ccc(OC(F)(F)F)cc2OC)c(F)cc1Cl` [F215, Methyl 3-chloro-5-fluoro-6-(2-methoxy-4-(trifluoromethoxy)phenyl)picolinate], the pest or weed control at 140 g/ha lay within 85 to 94% under setting [1]; 95 to 100% under setting [2]; 75 to 84% under setting [3]; 0 to 29% under setting [4]; 95 to 100% under setting [5]; 95 to 100% under setting [6]. Moreover, the pest or weed control at 140 g/ha was 30 to 44% under setting [7]; 45 to 59% under setting [8]; 0 to 29% under setting [9]; 85 to 94% under setting [10]; 45 to 59% under setting [11]; 85 to 94% under setting [12]. The pest or weed control at 140 g/ha reads like this: under setting [13], 85 to 94%; under setting [14], 60 to 74%; under setting [15], 0 to 29%.

Values taken from US20230017045A1, “PYRIDINE AND PYRIMIDINE CARBOXYLATE HERBICIDES AND METHODS OF USE THEREOF” (Dow AgroSciences LLC, priority 2017, published 2023).
